Values of other authors as cited in paper PMC5762609 (Journal of Pharmaceutical Analysis, 2016).

## CC(=O)O[C@H]1C(=O)[C@]23C[C@H]2C[C@H]2OC[C@@]2(OC(C)=O)[C@H]3[C@H](OC(=O)c2ccccc2)[C@]2(O)C[C@H](OC(=O)[C@H](O)[C@@H](NC(=O)OC(C)(C)C)c3ccccc3)C(C)=C1C2(C)C [Larotaxel]
  Content in tissues: higher in rich-blood tissues, such as heart, liver, spleen, lung and kidney
  Tissue distribution: distributed widely and rapidly
